{"source": "patent US20190224214A1", "about": "“HUMAN GHRELIN O-ACYLTRANSFERASE INHIBITORS” (SYRACUSE UNIVERSITY, priority 2016, published 2019)", "key": {"[1]": {"molecular_target": "T1, hGOAT (Homo sapiens, UniProt Q96T53)", "T1 construct": "made in house; host or cells: Sf9 insect cells (membrane fraction)", "T1 sequence (Q96T53 1-435)": "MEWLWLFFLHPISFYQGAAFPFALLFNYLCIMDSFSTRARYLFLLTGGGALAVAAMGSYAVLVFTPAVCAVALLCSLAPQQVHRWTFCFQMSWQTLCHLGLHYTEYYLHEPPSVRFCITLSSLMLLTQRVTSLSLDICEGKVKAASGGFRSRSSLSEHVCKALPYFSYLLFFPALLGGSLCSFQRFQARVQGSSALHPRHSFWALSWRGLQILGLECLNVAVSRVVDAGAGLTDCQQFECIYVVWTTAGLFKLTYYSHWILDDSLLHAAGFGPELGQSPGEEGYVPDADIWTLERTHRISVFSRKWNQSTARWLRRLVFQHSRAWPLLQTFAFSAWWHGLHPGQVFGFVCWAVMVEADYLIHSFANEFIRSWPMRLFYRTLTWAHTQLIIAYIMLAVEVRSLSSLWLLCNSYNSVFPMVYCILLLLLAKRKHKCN", "experiment": "fluorescence-based in vitro hGOAT activity assay (ghrelin octanoylation, HPLC readout)", "type": "biochemical", "description": "hGOAT was expressed and enriched in insect (Sf9) cell membrane fractions using a previously published procedure.\nPeptide substrates were labeled with acrylodan on a cysteine thiol and HPLC purified as previously reported.\nhGOAT activity assays were performed using a modification of previously reported protocols. For each assay, membrane fraction from Sf9 cells expressing hGOAT was thawed on ice and passed through an 18-gauge needle 10 times to homogenize. Assays were performed with ˜100 μg of membrane protein, as determined by Bradford assay. Membrane fraction was preincubated with 1 μM methoxy arachadonyl fluorophosphonate (MAFP) and inhibitor or vehicle as indicated in 50 mM HEPES pH 7.0 for 30 minutes at room temperature. Reactions were initiated with the addition of 500 µM octanoyl CoA and 1.5 μM fluorescently-labeled ghrelin mimetic, GSSFLCAcrylodan, for a total volume of 50 μL, and were incubated for 3 hours at room temperature in the dark. Reactions were stopped with the addition of 50 μL of 20% acetic acid in isopropanol, and solutions were clarified by protein precipitation with 16.7 μL of 20% trichloroacetic acid, followed by centrifugation (1,000×g, 1 minute). The supernatant was then analyzed by reverse phase HPLC, as previously described. Data reported are the average of three independent determinations, with error bars representing one standard deviation.\nFor inhibition experiments, reactions were performed and analyzed as described in the presence of either inhibitor or vehicle (DMSO or ethanol) as appropriate. The percent activity at each inhibitor concentration calculated from HPLC data using equations 1 and 2: […]\nTo determine the IC50 value, the plot of % activity versus [inhibitor] was fit to equation 3, with % activity0 denoting hGOAT activity in the presence of the vehicle alone: […]"}, "[2]": {"molecular_target": "T1, hGOAT", "experiment": "Inhibitor reversibility assay (10-fold dilution after pretreatment at 3x IC50)", "type": "biochemical", "settings": "pretreatment at 3x IC50, then 10-fold dilution", "description": "The reversibility of hGOAT inhibition by the α-cyanoenone compounds 3 and 9 was determined by enzyme pretreatment with each inhibitor at three times the measured IC50 concentration, followed by a 10-fold dilution into either reaction buffer or buffer containing the same inhibitor concentration as the pretreatment.\nUndiluted homogenized membrane protein fraction containing hGOAT (protein concentration ˜7 μg/μL) was incubated with 10 μM MAFP and 3×IC50 of inhibitor or equal volume vehicle (DMSO or ethanol) for 30 minutes at room temperature. […] Reactions were incubated for 3 hours at room temperature in the dark and then analyzed as described above."}, "[3]": {"settings": "hGOAT activity, individual trials, read-out: IC50 (individual trials)"}, "[4]": {"settings": "read-out: IC50, inhibition of hGOAT activity"}, "[5]": {"settings": "unit inferred, read-out: IC50, inhibition of hGOAT"}, "[6]": {"settings": "hGOAT activity, averaged, read-out: IC50 (averaged)"}}, "note": "Where two headings read alike, the source gives them in different places."}
{"compound": "CC1(C)CC[C@]2(C(=O)O)CC[C@]3(C)C(=CC[C@@H]4[C@@]5(C)CC[C@H](O)C(C)(C)[C@@H]5CC[C@]43C)[C@@H]2C1", "note": "[oleanic acid, reference compound]", "values": [{"measurement": "inhibition of hGOAT activity (in words)", "setting": "[1]; at concentrations up to 100 μM", "value": "negligible inhibition"}]}
{"compound": "CC(C)CCC[C@@H](C)[C@H]1CC[C@H]2[C@@H]3CCC4=CC(=O)CC[C@]4(C)[C@H]3CC[C@]12C", "note": "[Compound 14, (8S,9S,10R,13R,14S,17R)-10,13-dimethyl-17-((R)-6-methylheptan-2-yl)-6,7,8,9,10,11,12,13,14,15,16,17-dodecahydro-1H-cyclopenta[a]phenanthren-3(2H)-one]", "values": [{"measurement": "inhibition of hGOAT octanoylation activity (in words)", "setting": "[1]", "value": "abrogates inhibition of hGOAT"}]}
{"compound": "C[C@@]12CCC[C@H]1[C@@H]1CC[C@H]3CC(=O)CC[C@]3(C)[C@H]1CC2", "note": "[Compound 12, (5S,8S,9S,10S,13S,14S)-10,13-dimethyltetradecahydro-1H-cyclopenta[a]phenanthren-3(2H)-one]", "values": [{"measurement": "inhibition of hGOAT octanoylation activity (in words)", "setting": "[1]", "value": "loss of inhibition"}]}
{"compound": "C[C@@]12CCC[C@H]1[C@@H]1CC[C@H]3CC(=O)C(C#N)=C[C@]3(C)[C@H]1CC2", "note": "[Compound 9, (5S,8S,9S,10S,13S,14S)-10,13-dimethyl-3-oxo-4,5,6,7,8,9,10,11,12,13,14,15,16,17-tetradecahydro-3H-cyclopenta[a]phenanthrene-2-carbonitrile]", "values": [{"measurement": "IC50", "setting": "[1]; [3]", "value": "7 ± 3", "unit": "µM"}, {"measurement": "IC50", "setting": "[1]; [4]", "value": "8 ± 2", "unit": "µM"}, {"measurement": "enhancement of inhibitor potency against hGOAT by the steroid scaffold", "setting": "[1]; α-cyanoenone 9 versus 16", "value": "~150", "unit": "fold"}, {"measurement": "reversibility of hGOAT inhibition", "setting": "[2]", "value": "reversible hGOAT inhibition"}]}
{"compound": "N#CC1=CCCCC1=O", "note": "[Compound 16, 6-oxocyclohex-1-enecarbonitrile]", "values": [{"measurement": "IC50", "setting": "[1]; read-out: IC50, inhibition of hGOAT", "value": "1200 ± 200", "unit": "µM"}]}
{"compound": "CC1(C)CC[C@]2(C)CC=C3[C@]4(C)CC[C@H]5C(C)(C)[C@@H](O)CC[C@]5(C)[C@H]4CC[C@@]3(C)[C@@H]2C1", "note": "[Taraxerol, taraxerol, reference compound]", "values": [{"measurement": "inhibition of hGOAT acylation activity (in words)", "setting": "[1]; at concentrations up to 100 (unit not given)", "value": "fails to inhibit"}]}
{"compound": "O=C1CCCC=C1Br", "note": "[Compound 17, 2-bromocyclohex-2-enone]", "values": [{"measurement": "IC50", "setting": "[1]; [5]", "value": "500 ± 100", "unit": "µM"}]}
{"compound": "C[C@@]12CCC[C@H]1[C@@H]1CC[C@H]3CC(=O)[C@H](Br)C[C@]3(C)[C@H]1CC2", "note": "[Compound 13, (2R,5S,8S,9S,10S,13S,14S)-2-bromo-10,13-dimethyltetradecahydro-1H-cyclopenta[a]phenanthren-3(2H)-one]", "values": [{"measurement": "inhibition of hGOAT octanoylation activity (in words)", "setting": "[1]", "value": "unable to support inhibition"}]}
{"compound": "CCN1C(=O)C=CC1=O", "note": "[NEM, N-ethylmaleimide]", "values": [{"measurement": "inhibition of hGOAT octanoylation activity (in words)", "setting": "[1]", "value": "efficiently inhibits hGOAT"}, {"measurement": "reversibility of hGOAT inhibition", "setting": "[2]", "value": "classical irreversible hGOAT inhibition"}]}
{"compound": "C[C@@]12CCC[C@H]1[C@@H]1CC[C@H]3CC(=O)C=C[C@]3(C)[C@H]1CC2", "note": "[Compound 11, (2R,5S,8S,9S,10S,13S,14S)-10,13-dimethyl-4,5,6,7,8,9,10,11,12,13,14,15,16,17-tetradecahydro-3H-cyclopenta[a]phenanthren-3-one]", "values": [{"measurement": "IC50", "setting": "[1]; [6]", "value": "166 ± 58", "unit": "µM"}, {"measurement": "IC50", "setting": "[1]; [3]", "value": "201 ± 107", "unit": "µM"}, {"measurement": "IC50", "setting": "[1]; [5]", "value": "170 ± 60", "unit": "µM"}]}
{"compound": "C[C@@]12CCC[C@H]1[C@@H]1CC[C@H]3CC(=O)C(Br)=C[C@]3(C)[C@H]1CC2", "note": "[Compound 10, (5 S,8S,9S,10S,13S,14S)-10,13-dimethyl-3-oxo-4,5,6,7,8,9,10,11,12,13,14,15,16,17-tetradecahydro-3H-cyclopenta[a]phenanthrene-2-bromide]", "values": [{"measurement": "IC50", "setting": "[1]; [6]", "value": "83 ± 29", "unit": "µM"}, {"measurement": "IC50", "setting": "[1]; [3]", "value": "84 ± 35", "unit": "µM"}, {"measurement": "melting point", "value": "111 to 116", "unit": "°C"}]}
{"compound": "COC(=O)[C@]12CCC(C)(C)C[C@H]1[C@H]1C(=O)C=C3[C@@]4(C)C=C(C#N)C(=O)C(C)(C)[C@@H]4CC[C@@]3(C)[C@]1(C)CC2", "note": "[CDDO-Me, methyl 2-cyano-3,12-dioxooleana-1,9(11)dien-28-oate, reference compound]", "values": [{"measurement": "inhibition of hGOAT octanoylation activity (in words)", "setting": "[1]", "value": "exhibits inhibitory activity against hGOAT"}]}
{"compound": "C[C@H]1[C@H](C)CC[C@]2(C(=O)O)CC[C@]3(C)C(=CC[C@@H]4[C@@]5(C)CC[C@H](O)C(C)(C)[C@@H]5CC[C@]43C)[C@H]12", "note": "[ursolic acid, reference compound]", "values": [{"measurement": "inhibition of hGOAT activity (in words)", "setting": "[1]; at concentrations up to 100 μM", "value": "negligible inhibition"}]}
{"compound": "CC1(C)CC[C@]2(C(=O)O)CC[C@]3(C)[C@H](C(=O)C=C4[C@@]5(C)C=C(C#N)C(=O)C(C)(C)[C@@H]5CC[C@]43C)[C@@H]2C1", "note": "[Compound 5, reference compound]", "values": [{"measurement": "inhibition of hGOAT octanoylation activity (in words)", "setting": "[1]", "value": "lack of inhibition activity"}]}
{"compound": "CC1(C)CC[C@]2(C(=O)n3ccnc3)CC[C@]3(C)[C@H](C(=O)C=C4[C@@]5(C)C=C(C#N)C(=O)C(C)(C)[C@@H]5CC[C@]43C)[C@@H]2C1", "note": "[CDDO-Im, 1[2-cyano-3,12-dioxooleana-1,9-dien-28-oyl]imidazole, reference compound]", "values": [{"measurement": "IC50", "setting": "[1]; [4]", "value": "38 ± 6", "unit": "µM"}]}
{"compound": "O=C1C=CCCC1", "note": "[Compound 18, cyclohexenone, reference compound]", "values": [{"measurement": "inhibition of hGOAT activity (in words)", "setting": "[1]; at concentrations up to 1 mM", "value": "does not inhibit hGOAT activity"}]}
{"compound": "CCNC(=O)[C@]12CCC(C)(C)C[C@H]1[C@H]1C(=O)C=C3[C@@]4(C)C=C(C#N)C(=O)C(C)(C)[C@@H]4CC[C@@]3(C)[C@]1(C)CC2", "note": "[CDDO-EA]", "values": [{"measurement": "IC50", "setting": "[1]; [4]", "value": "8 ± 4", "unit": "µM"}, {"measurement": "reversibility of hGOAT inhibition", "setting": "[2]", "value": "reversible hGOAT inhibition"}]}
